Like-named read-outs stand apart in the source and are kept apart here.
Key:
[1] = tested on: C57BL/6J, B6.B10ScN-Tlr4lps-del/JthJ and C3H/HeJ mice; assay type: in vivo
Protocol: The role of TLR-4 in response to an acute increase in free heme was investigated. Wild type C57BL/6J mice and TLR-4 mutant mice B6.B10ScN-Tlr4^lps-del and C3H/HeJ (Poltorak et al. Defective LPS signaling in C3H/HeJ and C57BL/10ScCr mice: mutations in Tlr4 gene. Science. 1998; 282(5396):2085-2088.; Qureshi et al. Endotoxin-tolerant mice have mutations in Toll-like receptor 4 (Tlr4). The J Expt. Med. 1999; 189(4):615-625) were injected intravenously with 210 μmoles/kg hemin, a normally lethal dose. This injection increased free heme concentrations by a magnitude of 50-fold in both wild type and TLR-4 mutant mice (FIG. 6a).
TPH per se, therefore, the involvement of a receptor mediated mechanism was suspected. Several heme receptors have been characterized, including TLR433, which is uniquely expressed by multiple cells in the circulation and therefore accessible to PFPH. Studies were performed in wild-type C57BL/6J mice, and mutant strains, B6.B10ScN-Tlr4lps-del/JthJ and C3H/HeJ, harboring a deletion and a point mutation respectively, in the murine TLR4 gene. Significant elevation of PFPH in these mice required a large dose of heme (210 μmoles/kg) (FIG. 12a), and as expected this amount of heme interfered, transiently with SpO2 measurements characterized by an immediate and dramatic decline. […] This interpretation was supported by a return of SpO2 values to normal in C3H/HeJ but not in the wild-type C57BL/6J mice, indeed, SpO2 deteriorated over time in the latter reminiscent of the decline in SS mice (FIG. 12b). […] These unique pulmonary responses were consistent with survival (FIG. 12d) and lung histology (FIG. 13).

[2] = tested on: SS mice; test: TAK-242 pre-treatment before heme in SS mice; assay type: in vivo, mouse
Protocol: (a, b) The concentration of total and protein-free plasma heme in SS mice following, injections of TAK-242 or intralipid in the absence of exogenous heme. (c, d) Percentage oxygen saturation and breath rate monitored in real-time in SS mice at different stages of the experiment as indicated. Data shown are for a total of nine SS mice (intralipid; n=4, TAK-242; n=5). (e) Survival of SS mice pre-treated with TAK-242 (3 or 5 mg/kg) for 1 h prior to intravenous administration of heme (n=7-13). Control mice were treated with intralipid (n=17). (f) Representative lung H&E staining of SS mice treated with intralipid or TAK-242 one hour prior to administration of heme (35 μmoles/kg). Cumulative lung injury score (n=3). *p<0.05, **p<0.01 and ***p<0.001.
TAK-242 (resatorvid) is a small molecule that binds to Cys747 of the intracellular domain of TLR4 and inhibits downstream signaling. It inhibits the production of lipopolysaccharide (LPS)-induced inflammatory mediators, and it improves survival in LPS-induced sepsis. […] One hour prior to heme administration, a cohort of SS mice were intravenously administered 5 mg/kg of TAK-242, or intralipid. […] Heme had no impact on SpO2 in the majority of TAK-242 treated SS mice (5/6), however it caused an initially subtle yet sustained decrease that deteriorated over time in the intralipid treated mice (FIG. 14c). […] TAK-242 protected 83% of the SS mice from heme induced lethality, compared to 20% in the group given intralipid. These survival data were similar to those obtained in subsequent experiments focused on heme induced lethality (TAK-242; 5/7 (71%) protection, intralipid; 3/12 […] protection). The combined data is shown in FIG. 14e, and is supported by histological analysis (FIG. 14f).

[3] = tested on: non-sickle cell disease mice; details: hemin 70 μmoles/kg, Vinchi et al.; cited from earlier work
[4] = tested on: NF-κB; test: NF-κB activation in pulmonary microvascular endothelial cells; assay type: cell-based; details: PMVECs, hemin 5 or 10 μM
Excerpt: Additionally, the role of NF-κB in the inflammatory response to free heme that occurs in ACS was investigated. Endothelial TLR4, and not neutrophil TLR4, mediates the early stage of the acute sequestration of neutrophils into the lungs in response to systemic LPS (Andonegui et al. Endothelium-derived Toll-like receptor-4 is the key molecule in LPS-induced neutrophil sequestration into lungs. J Clin Invest. 2003; 111(7):1011-1020; Andonegui et al. Mice that exclusively express TLR4 on endothelial cells can efficiently clear a lethal systemic Gram-negative bacterial infection. J Clin Invest. 2009; 119(7): 1921-1930). Thus, pulmonary microvascular endothelial cells (PMVECs) may play a role in the inflammatory response to free heme. […] These include nuclear translocation of p65 NF-κB in PMVECs as determined by immunofluorescence staining and western blot of nuclear extract (FIGS. 7b and 7c, respectively), luciferase reporter gene activity driven by a promoter harboring NF-κB cis elements in PMVECs (FIG. 7d), and TNF-α production (FIG. 7e).

[5] = tested on: SS mice
[6] = tested on: SS mice; test: Acute prophylaxis with recombinant human hemopexin before heme in SS mice; assay type: in vivo, mouse; details: 1 mg intravenously immediately before heme 35 μmoles/kg
Protocol: Mice were injected with rhHx (n=6), vehicle (n=5) or human IgG (n=3) immediately before administration of heme (35 μmoles/kg). *p<0.05, **p<0.01 and ***p<0.001.
The hemopexin-treated mice were all protected while the control mice succumbed to heme (FIG. 11). Thus, acute prophylaxis using hemopexin may be an attractive therapeutic strategy to block the deleterious effects of PFPH during severe episodes of acute hemolysis in SCD.

## C=CC1=C(C)c2cc3[nH]c(cc4[nH]c(cc5nc(cc1n2)C(C)=C5C=C)c(C)c4CCC(=O)[O-])c(CCC(=O)[O-])c3C.[Na+].[Na+] [Na-PPIX, sodium protoporphyrin IX]
[1]; injected at the LD100 of heme, C57BL/6J mice
  survival: no impact on survival

## CCOC(=O)C1=CCCC[C@H]1S(=O)(=O)Nc1ccc(F)cc1Cl [TAK-242, resatorvid]
[2]; SCD mice, pre-treatment 1 h before heme
  development of heme induced ALI: prevents
[2]; SS mice, absence of exogenous heme
  scavenging of heme (total and protein-free plasma heme): did not alter
[2]; TAK-242 5 mg/kg 1 h before heme, SS mice, first cohort
  protection from heme induced lethality: 83%
[2]; TAK-242 5 mg/kg intravenously 1 h before heme
  SS mice in which heme had no impact on SpO2: 5/6
[2]; TAK-242 5 mg/kg intravenously 1 h before heme, SS mice
  breath rate after heme: remained essentially the same
[2]; subsequent experiments focused on lethality, SS mice
  protection from heme induced lethality: 71%

## Fe(III)PPIX [hemin]
[1]; hemin 210 μmoles/kg, both types of TLR-4 mutant mice
  mortality: 0%
[1]; hemin 210 μmoles/kg, wild type C57BL/6J mice, after 90 minutes
  mortality rate: 100%
[3]
  increase of lung permeability: 2 fold
[4]
  NF-κB activation (p65 nuclear translocation, luciferase reporter, TNF-α production): dose-dependently activates
[5]; SS mice treated with heme, at the median time of death
  serum ALT: normal
[5]; SS mice, heme 35 μmoles/kg, 5-30 min
  plasma hemopexin level after heme injection: virtually undetectable levels
[5]; heme 35 μmoles/kg, SS mice with the highest baseline hemopexin level
  survival: 50%
[5]; heme 35 μmoles/kg, SS mice with the lowest baseline hemopexin (<0.1 mg/ml)
  survival: none
[5]; heme 70 μmoles/kg, AS and AA mice
  survival: no impact on survival
[5]; heme 17.5-70 μmoles/kg intravenously, SS mice
  total plasma heme (TPH) and protein-free plasma heme (PFPH): raised TPH and PFPH in a dose-dependent manner
[5]; heme 17.5-70 μmoles/kg, SS mice
  lethality: caused lethality in SS mice in a dose-dependent manner
[5]; hemin 70 μmoles/kg intravenous, SS mice
  oxygen saturation (SpO2): sharp drop
[5]; hemin 70 μmoles/kg intravenously, SS and control mice
  increase of plasma concentration of heme: 20 fold
[5]; hemin 70 μmoles/kg, AS mice
  change in SpO2 or breath rate: no significant change
[5]; hemin 70 μmoles/kg, SS or control mice
  change in hematocrit: did not significantly change
[5]; hemin 70 μmoles/kg, Townes and Berkeley SCD mice
  lethality: caused sudden death
[5]; hemin 70 μmoles/kg, adult SS mice aged 13-27 weeks
  mortality: 100%
[5]; hemin 70 μmoles/kg, young SS mice 5-7 weeks old
  survival: 80%

## Iron mesoporphyrin [Fe(III)MPP-IX]
[1]; mouse, in vivo
  survival: no impact on survival

B1: recombinant human hemopexin: recombinant human hemopexin, a protein that binds free heme for transport to the liver (protein, UniProt P02790 24-462, looked up)
Hemopexin: TPLPPTSAHGNVAEGETKPDPDVTERCSDGWSFDATTLDDNGTMLFFKGEFVWKSHKWDRELISERWKNFPSPVDAAFRQGHNSVFLIKGDKVWVYPPEKKEKGYPKLLQDEFPGIPSPLDAAVECHRGECQAEGVLFFQGDREWFWDLATGTMKERSWPAVGNCSSALRWLGRYYCFQGNQFLRFDPVRGEVPPRYPRDVRDYFMPCPGRGHGHRNGTGHGNSTHHGPEYMRCSPHLVLSALTSDNHGATYAFSGTHYWRLDTSRDGWHSWPIAHQWPQGPSAVDAAFSWEEKLYLVQGTQVYVFLTKGGYTLVSGYPKRLEKEVGTPHGIILDSVDAAFICPGSSRLHIMAGRRLWWLDLKSGAQATWTELPWPHEKVDGALCMEKSLGPNSCSANGPGLYLIHGPNLYCYSDVEKLNAAKALPQPQNVTSLLGCTH
[6]
  protection from heme induced lethality: all protected
[6]; listed as rhHx
  protection from heme induced lethality: protects
